Assay results reported in PubChem BioAssay (NCI).
Where “and” joins values, the source holds several entries; their conditions need not be identical. Identical values can stand only once.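 Compound exposure: 48 hours, 5 concentrations, 96-well plates. The concentration for 50% growth inhibition is given as GI50. The concentration for full growth arrest is given as TGI.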

What was measured:
Assay in all cases: growth of human tumour cells (NCI), 48 h
UACC-62 melanoma = system: UACC-62 melanoma
K-562 leukemia = system: K-562 leukemia
MDA-MB-231 breast = system: MDA-MB-231 breast
HL-60(TB) leukemia = system: HL-60(TB) leukemia
HOP-62 NSCLC = system: HOP-62 NSCLC
LOX IMVI melanoma = system: LOX IMVI melanoma
CAKI-1 renal = system: CAKI-1 renal
MDA-MB-435 = system: MDA-MB-435
UACC-257 melanoma = system: UACC-257 melanoma
HCC-2998 colon = system: HCC-2998 colon
SNB-19 CNS = system: SNB-19 CNS
SK-OV-3 ovarian = system: SK-OV-3 ovarian
HT29 colon = system: HT29 colon
SNB-75 CNS = system: SNB-75 CNS
SK-MEL-5 melanoma = system: SK-MEL-5 melanoma
HCT-116 colon = system: HCT-116 colon
CCRF-CEM leukemia = system: CCRF-CEM leukemia
SF-539 CNS = system: SF-539 CNS
NCI-H226 lung = system: NCI-H226 lung
OVCAR-5 ovarian = system: OVCAR-5 ovarian
SN12C renal = system: SN12C renal
SW-620 colon = system: SW-620 colon
MOLT-4 leukemia = system: MOLT-4 leukemia
RPMI-8226 leukemia = system: RPMI-8226 leukemia
IGROV1 ovarian = system: IGROV1 ovarian
SF-295 CNS = system: SF-295 CNS
OVCAR-8 ovarian = system: OVCAR-8 ovarian
MALME-3M melanoma = system: MALME-3M melanoma
DU-145 prostate = system: DU-145 prostate
TK-10 renal = system: TK-10 renal
SK-MEL-28 melanoma = system: SK-MEL-28 melanoma
NCI-H23 lung = system: NCI-H23 lung
M14 melanoma = system: M14 melanoma
COLO 205 colon = system: COLO 205 colon
UO-31 renal = system: UO-31 renal
SR leukemia = system: SR leukemia
T-47D breast = system: T-47D breast
OVCAR-3 ovarian = system: OVCAR-3 ovarian
RXF 393 renal = system: RXF 393 renal
786-0 renal = system: 786-0 renal
OVCAR-4 ovarian = system: OVCAR-4 ovarian
NCI/ADR-RES ovarian = system: NCI/ADR-RES ovarian
PC-3 prostate = system: PC-3 prostate
NCI-H522 lung = system: NCI-H522 lung
U251 CNS = system: U251 CNS
SK-MEL-2 melanoma = system: SK-MEL-2 melanoma
ACHN renal = system: ACHN renal
HCT-15 colon = system: HCT-15 colon
BT-549 breast = system: BT-549 breast
NCI-H460 lung = system: NCI-H460 lung
KM12 colon = system: KM12 colon
HS 578T breast = system: HS 578T breast
SF-268 CNS = system: SF-268 CNS
A549 NSCLC = system: A549 NSCLC
HOP-92 NSCLC = system: HOP-92 NSCLC
MCF7 breast = system: MCF7 breast
A498 renal = system: A498 renal

CCCCCc1c(C)[nH]c(/C=C2\N=C(c3ccc[nH]3)C=C2Oc2ccccc2)c1C
GI50 (UACC-62 melanoma): 16.1 nM and 11.1 nM | TGI (UACC-62 melanoma): 31.1 nM and 27.4 nM | GI50 (K-562 leukemia): 26.3 nM | TGI (K-562 leukemia): 3410 nM | GI50 (MDA-MB-231 breast): 5.56 nM | TGI (MDA-MB-231 breast): 29.5 nM and 18.1 nM | GI50 (HL-60(TB) leukemia): 38.4 nM and 15 nM | TGI (HL-60(TB) leukemia): 343 nM and 65.6 nM | GI50 (HOP-62 NSCLC): 32.2 nM and 27.2 nM | TGI (HOP-62 NSCLC): 1890 nM and 1180 nM | GI50 (LOX IMVI melanoma): 14.3 nM | TGI (LOX IMVI melanoma): 31.2 nM | GI50 (CAKI-1 renal): 23.3 nM | TGI (CAKI-1 renal): 55.8 nM and 40.4 nM | GI50 (MDA-MB-435): 21.8 nM | TGI (MDA-MB-435): 58 nM | GI50 (UACC-257 melanoma): 45.4 nM and 30 nM | TGI (UACC-257 melanoma): 354 nM and 233 nM | GI50 (HCC-2998 colon): 17.1 nM | TGI (HCC-2998 colon): 217 nM and 1000 nM | GI50 (SNB-19 CNS): 58.2 nM and 38.7 nM | TGI (SNB-19 CNS): 1460 nM and 1440 nM | GI50 (SK-OV-3 ovarian): 56.5 nM and 30.9 nM | TGI (SK-OV-3 ovarian): 671 nM and 628 nM | GI50 (HT29 colon): 22.6 nM | TGI (HT29 colon): 1370 nM and 1300 nM | GI50 (SNB-75 CNS): 24.6 nM and 17.5 nM | TGI (SNB-75 CNS): 71.9 nM and 55.9 nM | GI50 (SK-MEL-5 melanoma): 16.7 nM and 10.9 nM | TGI (SK-MEL-5 melanoma): 34 nM and 24 nM | GI50 (HCT-116 colon): 22.8 nM | TGI (HCT-116 colon): 129 nM | GI50 (CCRF-CEM leukemia): 9.49 nM | TGI (CCRF-CEM leukemia): 1210 nM and 2160 nM | GI50 (SF-539 CNS): 24.2 nM and 11.3 nM | TGI (SF-539 CNS): 85.6 nM and 38.7 nM | GI50 (NCI-H226 lung): 19.1 nM and 74.5 nM | GI50 (OVCAR-5 ovarian): 26.2 nM and 10.9 nM | TGI (OVCAR-5 ovarian): 1070 nM and 377 nM | GI50 (SN12C renal): 36.3 nM and 18 nM | TGI (SN12C renal): 232 nM and 144 nM | GI50 (SW-620 colon): 24.8 nM | GI50 (MOLT-4 leukemia): 25.4 nM and 13 nM | TGI (MOLT-4 leukemia): 355 nM and 78.3 nM | GI50 (RPMI-8226 leukemia): 22.2 nM | TGI (RPMI-8226 leukemia): 187 nM and 182 nM | GI50 (IGROV1 ovarian): 39.1 nM and 24.4 nM | TGI (IGROV1 ovarian): 1490 nM and 1230 nM | GI50 (SF-295 CNS): 24.4 nM | TGI (SF-295 CNS): 106 nM | GI50 (OVCAR-8 ovarian): 27.7 nM and 15 nM | TGI (OVCAR-8 ovarian): 138 nM and 56.7 nM | GI50 (MALME-3M melanoma): 42.4 nM and 28.6 nM | TGI (MALME-3M melanoma): 204 nM and 115 nM | GI50 (DU-145 prostate): 17.7 nM | TGI (DU-145 prostate): 129 nM and 104 nM | GI50 (TK-10 renal): 44.6 nM and 23.4 nM | TGI (TK-10 renal): 448 nM and 152 nM | GI50 (SK-MEL-28 melanoma): 39.8 nM and 21.1 nM | TGI (SK-MEL-28 melanoma): 192 nM and 101 nM | GI50 (NCI-H23 lung): 29.9 nM and 16 nM | TGI (NCI-H23 lung): 668 nM and 387 nM | GI50 (M14 melanoma): 21.3 nM and 10.3 nM | TGI (M14 melanoma): 50.4 nM and 32.2 nM | GI50 (COLO 205 colon): 30.5 nM | TGI (COLO 205 colon): 193 nM and 49.2 nM | GI50 (UO-31 renal): 25.1 nM and 10.4 nM | TGI (UO-31 renal): 109 nM and 24 nM | GI50 (SR leukemia): 11.7 nM | GI50 (T-47D breast): 21.1 nM and 14.7 nM | GI50 (OVCAR-3 ovarian): 19.1 nM and 12.2 nM | TGI (OVCAR-3 ovarian): 64.2 nM and 40.4 nM | GI50 (RXF 393 renal): 17.2 nM and 12.3 nM | TGI (RXF 393 renal): 157 nM and 54.6 nM | GI50 (786-0 renal): 17.2 nM and 11.8 nM | TGI (786-0 renal): 43.9 nM and 45.7 nM | GI50 (OVCAR-4 ovarian): 11.3 nM | TGI (OVCAR-4 ovarian): 265 nM and 1220 nM | GI50 (NCI/ADR-RES ovarian): 48.6 nM and 27.8 nM | TGI (NCI/ADR-RES ovarian): 255 nM and 174 nM | GI50 (PC-3 prostate): 30.6 nM | TGI (PC-3 prostate): 1220 nM and 166 nM | GI50 (NCI-H522 lung): 18.2 nM and 18.1 nM | TGI (NCI-H522 lung): 101 nM and 168 nM | GI50 (U251 CNS): 19 nM | TGI (U251 CNS): 104 nM and 27.9 nM | GI50 (SK-MEL-2 melanoma): 17.9 nM and 13.9 nM | TGI (SK-MEL-2 melanoma): 40.2 nM and 32.9 nM | GI50 (ACHN renal): 17.3 nM | TGI (ACHN renal): 111 nM | GI50 (HCT-15 colon): 19.6 nM | TGI (HCT-15 colon): 79.8 nM and 41.3 nM | GI50 (BT-549 breast): 40.2 nM and 28.3 nM | TGI (BT-549 breast): 538 nM and 1050 nM | GI50 (NCI-H460 lung): 23.1 nM | TGI (NCI-H460 lung): 1160 nM and 1050 nM | GI50 (KM12 colon): 11.3 nM | TGI (KM12 colon): 49.4 nM and 13.8 nM | GI50 (HS 578T breast): 21.3 nM and 11.1 nM | TGI (HS 578T breast): 92.5 nM and 48.7 nM | GI50 (SF-268 CNS): 23.4 nM | TGI (SF-268 CNS): 1240 nM and 1000 nM | GI50 (A549 NSCLC): 22 nM and 11.7 nM | TGI (A549 NSCLC): 56.9 nM and 40.1 nM | GI50 (HOP-92 NSCLC): 13.8 nM | TGI (HOP-92 NSCLC): 57.7 nM and 32.6 nM | GI50 (MCF7 breast): 32.6 nM | TGI (MCF7 breast): 442 nM and 1050 nM | GI50 (A498 renal): 16.1 nM and 12.7 nM | TGI (A498 renal): 69 nM and 50.8 nM
